Results as given in paper PMC6858345, “Structural insights into heme binding to IL-36α proinflammatory cytokine” (Scientific Reports, 2019).
Read-outs that look alike come from different tables or passages of the source.

What was measured:
[1] = tested on: synovial fibroblast-like synoviocytes (FLS) from RA patients; assay: IL-6/IL-8 mRNA expression (qRT-PCR) in stimulated FLS; assay type: cell-based, human; conditions: 24 h; for IL-6 and IL-8 expression (mRNA) in FLS: IL-36α 5.8 nM, heme 0.15 and 1.5 µM (ratios 26:1 and 260:1)
Experimental: Human fibroblast-like synoviocytes (FLS) were isolated from knee joints of rheumatoid arthritis patients obtained at the University Hospital Erlangen-Nuremberg[69]. All patients gave written informed consent, and their use for research was approved by the ethics committee of the University hospital Erlangen (ethic licenses 4013 and 4065). We confirm that all methods were performed in accordance with the relevant guidelines and regulations. Human RA FLS kept at 37 °C and 5% CO2 in a humidified incubator upon isolation. They were cultured in RPMI and DMEM at a ratio of 1:5, supplemented with 50 U/mL penicillin, 50 μg/mL streptomycin, 0.2% amphotericin and 2% fetal bovine serum. Cells between passages 3 to 8 were used. For stimulation experiments, human FLS from RA patients were seeded at a concentration of 100,000 cells/mL in 500 μL culture medium in a 48-well plate one day prior to the experiment. […] Cells were then incubated for either 5 min (western blot analysis of phosphorylation) or 24 h (qPCR and ELISA). Sample separation was performed by a reducing […] (10% SDS polyacrylamide gel) and blotted to a nitrocellulose membrane by semi-dry transfer. […] Cell viability was analyzed using the AlamarBlue assay according to the manufacturer's instruction (#741802, Invitrogen, Carlsbad, CA, USA), and absorbance was measured at 570 nm and 600 nm. For performing quantitative real-time PCR (qRT-PCR), RNA was isolated from FLS with […], Germany), followed by first-strand cDNA synthesis using the MultiScribeTM MuLV reverse transcriptase (Applied Biosystems, Foster City, CA, USA), both according to manufacturer's instruction. Relative gene expression was assessed by qRT-PCR using the Applied Biosystems 7500 fast-real-time-PCR System (Applied Biosystems) with SYBR® Select Master Mix (ThermoFisher Scientific) as detection method, according to the manufacturer's manual. Samples and the housekeeping gene GAPDH as endogenous control were analyzed in duplicates. […]

[2] = tested on: synovial fibroblast-like synoviocytes (FLS) from RA patients; assay: p38 activation in FLS (western blot of P-p38); assay type: cell-based, human; conditions: 5 min stimulation
Experimental: Human fibroblast-like synoviocytes (FLS) were isolated from knee joints of rheumatoid arthritis patients obtained at the University Hospital Erlangen-Nuremberg[69]. All patients gave written informed consent, and their use for research was approved by the ethics committee of the University hospital Erlangen (ethic licenses 4013 and 4065). We confirm that all methods were performed in accordance with the relevant guidelines and regulations. Human RA FLS kept at 37 °C and 5% CO2 in a humidified incubator upon isolation. They were cultured in RPMI and DMEM at a ratio of 1:5, supplemented with 50 U/mL penicillin, 50 μg/mL streptomycin, 0.2% amphotericin and 2% fetal bovine serum. Cells between passages 3 to 8 were used.
For stimulation experiments, human FLS from RA patients were seeded at a concentration of 100,000 cells/mL in 500 µL culture medium in a 48-well plate one day prior to the experiment. Before stimulation of FLS, heme was pre-incubated with trIL-36α or trIL-36α protein mutants with substituted amino acids in the proposed heme-binding site in medium for 1 h at room temperature in the dark. […] Cell viability was analyzed using the AlamarBlue assay according to the manufacturer’s instruction (#741802, Invitrogen, Carlsbad, CA, USA), and absorbance was measured at 570 nm and 600 nm.

IL-36α = target: T1, IL-36α (Homo sapiens, UniProt Q9UHA7); assay: UV/Vis differential spectroscopy, protoporphyrin IX applied to IL-36α; assay type: binding
T1 construct: three additional amino acids (Gly-Ser-His) attached at the N-terminus of full-length IL-36α (161 amino acids); His6 tag with thrombin cleavage site (N, cleaved yes); made in house; host or cells: Escherichia coli BL21(DE3), pET-28a
T1 sequence (Q9UHA7 6-158): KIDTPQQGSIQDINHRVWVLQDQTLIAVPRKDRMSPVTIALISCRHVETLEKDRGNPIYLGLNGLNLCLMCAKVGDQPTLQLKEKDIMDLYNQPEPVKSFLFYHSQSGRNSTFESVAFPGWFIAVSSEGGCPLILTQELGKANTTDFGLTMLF
Experimental: (§1) A Multiskan GO microplate spectrophotometer (ThermoFisher Scientific, Dreieich, Germany) was used for UV/Vis measurements. Heme and peptide solutions were prepared in 100 mM Hepes buffer (pH 7.0). IL-36 cytokines (~5 µM), dissolved in 20 mM sodium phosphate buffer (pH 6.9), were incubated with heme (0.2 to 40 µM) in the dark at room temperature for 60 minutes before UV/Vis spectra were measured at 300 to 600 nm. Protein concentrations were corrected using the calculated molar absorption coefficient at 280 nm. Peptides 1–7 (20 µM) were incubated with heme for 30 minutes in the dark at room temperature.

[3] = UV/Vis differential spectroscopy of heme-incubated proteins and peptides; assay type: binding; conditions: peptide 20 µM, 30 min, 100 mM Hepes pH 7.0; read-out: KD for UV/Vis, IL-36α-derived peptides
Experimental: as §1

[4] = Peroxidase-like activity of heme complexes; assay type: biochemical; conditions: protein:heme 1:1 and 1:2
Description: A peroxidase-like activity of heme-peptide/protein complexes has been discussed to be critical due to cytotoxic ROS formation[4],[43]–[45]. We thus tested the peroxidase-like activity of IL-36α-heme-complexes in two different ratios (1:1 and 1:2, protein:heme) as well as of both heme-binding motifs (CP, YH) on the peptide level (Supplementary Fig. S5E).

[5] = Surface plasmon resonance (SPR) of heme binding to immobilized proteins, single-cycle kinetics
Experimental: SPR measurements were performed on a Biacore T200 instrument (GE Healthcare Europe GmbH, Freiburg, Germany) at 25 °C. The running buffer was 10 mM HEPES (pH 7.4), 150 mM NaCl, 0.05% Tween 20. The proteins BSA (VWR Life Science AMRESCO, Germany), lysozyme (AppliChem GmbH, Darmstadt, Germany), IL-36α (protein expression), trIL-36α (R&D Systems, Minneapolis, MN, USA), trIL-36β (isoform 2, R&D Systems, Minneapolis, MN, USA) and trIL-36γ (R&D Systems, Minneapolis, MN, USA) were covalently immobilized by amine coupling on a CM5 sensor chip (GE Healthcare). Briefly, lysozyme was diluted to a final concentration of 2.5 µg/mL in acetate buffer (pH 7.0), and BSA was diluted to 2.5 µg/mL in acetate buffer (pH 5.0). trIL-36α, trIL-36β, and trIL-36γ were diluted to 0.85 µg/mL in acetate buffer (pH 4.0). Subsequently, the proteins were separately injected at 10 µL/min on an EDC/NHS activated flow cell until immobilization levels of 1600 RU (lysozyme), 1050 RU (trIL-36α), 2900 RU (BSA), 937 RU (trIL-36β), and 320 RU (trIL-36γ) were achieved. An activated/deactivated flow cell was used for reference subtraction. […]

[6] = Fluorescence quenching of heme-incubated proteins; assay type: binding; conditions: λex 306 nm, λem 352 nm; protein 1 µM, heme 0.1-16 µM
Experimental: All measurements were performed on a fluorescence spectrophotometer FP-8300 (Jasco, Tokyo, Japan). BSA (1 µM) and lysozyme (1 µM) were dissolved in PBS buffer (pH 7.4) and IL-36α variants (1 µM) in 20 mM sodium phosphate buffer (pH 6.9), were each dissolved in and incubated for 60 minutes with varying heme concentrations (0.1–16 µM) in the dark. Parameters were set to excitation at 306 nm, emission at 352 nm, bandwidth 10 nm (extinction) and 20 nm (emission)[30].

[7] = design: method as in PMID 23730736; conditions: UV shift to ~366 nm; read-out: Heme binding affinity of the 9mer CP-motif (UV/Vis); cited from earlier work

## C=CC1=C(C)C2=Cc3c(C=C)c(C)c4[n]3[Fe+][n]3c(c(C)c(CCC(=O)O)c3=CC3=NC(=C4)C(C)=C3CCC(=O)O)=CC1=N2 [heme]
[1]
  IL-6 and IL-8 expression (mRNA) in FLS: did not have an effect
[2]
  Activation of p38 in IL-36α-mediated signaling: decreased activation of p38

## C=CC1=C(C)c2cc3[nH]c(cc4nc(cc5[nH]c(cc1n2)c(C)c5CCC(=O)O)C(CCC(=O)O)=C4C)c(C)c3C=C [protoporphyrin IX (PPIX), protoporphyrin IX]
IL-36α
  Effect on UV/Vis differential spectrum of IL-36α: No effect

## FLFY108H109SQSG (FLFYHSQSG; UniProt Q9UHA7 105-113, looked up, fragment) [Peptide 1, IL-36α-derived 9mer wild-type YH motif peptide]
[3]
  Kd: 4.48 ± 2.2 µM
[4]
  Peroxidase-like activity relative to heme (100%): No significant increase

## Lysozyme: negative control (non-binder) for heme binding [reference compound]
[5]
  Heme binding by SPR (in words): non-binder
[6]
  Heme binding by fluorescence quenching (in words): non-binder

## SEGGC136P137LIL (SEGGCPLIL; UniProt Q9UHA7 132-140, looked up, fragment) [9mer CP-motif]
[7]
  Kd: 3.75 ± 0.77 µM

B1: IL-36α: full-length interleukin-36α, recombinantly expressed in E. coli (protein, UniProt Q9UHA7 1-158, looked up)
chain: MEKALKIDTPQQGSIQDINHRVWVLQDQTLIAVPRKDRMSPVTIALISCRHVETLEKDRGNPIYLGLNGLNLCLMCAKVGDQPTLQLKEKDIMDLYNQPEPVKSFLFYHSQSGRNSTFESVAFPGWFIAVSSEGGCPLILTQELGKANTTDFGLTMLF
modifications: full-length
notes: full-length interleukin-36α, recombinantly expressed in E. coli
[1]
  IL-6 and IL-8 expression (mRNA) in FLS: induced IL-6 and IL-8 expression
[4]
  Peroxidase-like activity relative to heme (100%): No significant increase
[6]
  Heme binding by fluorescence quenching (in words): confirmed

B2: C136SP137A: IL-36α protein mutant C136S P137A (protein, UniProt Q9UHA7 6-158, looked up, variant C136S P137A)
Interleukin-36 alpha: KIDTPQQGSIQDINHRVWVLQDQTLIAVPRKDRMSPVTIALISCRHVETLEKDRGNPIYLGLNGLNLCLMCAKVGDQPTLQLKEKDIMDLYNQPEPVKSFLFYHSQSGRNSTFESVAFPGWFIAVSSEGGSALILTQELGKANTTDFGLTMLF
[1]; 5.8 nM protein, compared to IL-36α
  IL-6 expression / biological activity of IL-36α mutants in FLS: showed biological activity, even if reduced with respect to wild-type IL-36α
